Reference: patent publication US20230022724A1, “NOVEL IMIDAZOPYRAZINE DERIVATIVES” (Hoffmann-La Roche Inc., priority 2018, published 2023)
Counter-ions that a name gives are not always drawn. Like-named read-outs stand apart in the source and are kept apart here.

Test system: Acinetobacter baumannii ATCC17978
Experiment: Antimicrobial susceptibility testing: 90% growth inhibitory concentration (IC90) determination
Assay type: cell-based
Conditions: read-out: ATCC17978 IC90
Experimental: The in vitro antimicrobial activity of the compounds was determined according to the following procedure:
The assay used a 10-points Iso-Sensitest broth medium to measure quantitatively the in vitro activity of the compounds against Acinetobacter baumannii ATCC17978 and Acinetobacter baumannii ATCC17961.
Stock compounds in DMSO were serially twofold diluted (e.g. range from 50 to 0.097 μM final concentration) in 384 wells microtiter plates and inoculated with 49 μl the bacterial suspension in Iso-Sensitest medium to have a final cell concentration of ˜5×10^(5) CFU/ml in a final volume/well of 50 ul/well. Microtiter plates were incubated at 35±2° C.
Bacterial cell growth was determined with the measurement of optical density at λ=600 nm each 20 minutes over a time course of 16 h. Growth inhibition was calculated during the logarithmic growth of the bacterial cells with determination of the concentration inhibiting 50% (IC50) and 90% (IC90) of the growth.
Table 1 provides the 90% growth inhibitory concentrations (IC90) in micromoles per liter of the compounds of present invention obtained against the strain Acinetobacter baumannii ATCC17978 and Acinetobacter baumannii ATCC17961.

[1] = Acinetobacter baumannii, ATCC17978, 16 h
[2] = Acinetobacter baumannii, ATCC17978, 16 h, 90% growth inhibitory concentration, Acinetobacter baumannii ATCC17978, Iso-Sensitest broth, OD 600 nm over 16 h

Compound | IC90 [2] | further results
CNCC(=O)N1CCN(C(=O)c2ccc(Nc3nccn4c(-c5ccc(OC)c(F)c5F)cnc34)cc2Cl)CC1 [Example 53, 1-[4-[2-chloro-4-[[3-(2,3-difluoro-4-methoxyphenyl)imidazo[1,2-a]pyrazin-8-yl]amino]benzoyl]piperazin-1-yl]-2-(methylamino)ethanone; hydrochloride] |  | IC90 [1]: 56 nM
COc1ccc(-c2cnc3c(Nc4ccc(C(=O)N5CCC(C(=O)NCC6CNC6)CC5)c(Cl)c4)nccn23)cc1F [Example 54, N-(azetidin-3-ylmethyl)-1-[2-chloro-4-[[3-(3-fluoro-4-methoxyphenyl)imidazo[1,2-a]pyrazin-8-yl]amino]benzoyl]piperidine-4-carboxamide;hydrochloride] |  | IC90 (90% growth inhibitory concentration, Acinetobacter baumannii ATCC17978, Iso-Sensitest broth, OD 600 nm over 16 h, hydrochloride): 130 nM
COc1ccc(-c2cnc3c(Nc4ccc(C(=O)N5CCN(CCN(C)C)CC5)c(Cl)c4)nccn23)cc1F [Example 55, [2-chloro-4-[[3-(3-fluoro-4-methoxyphenyl)imidazo[1,2-a]pyrazin-8-yl]amino]phenyl]-[4-[2-(dimethylamino)ethyl]piperazin-1-yl]methanone;hydrochloride] | 140 nM | 
COc1ccc(-c2cnc3c(Nc4ccc(C(=O)N5CCN(C(=O)C(O)CN)CC5)c(Cl)c4)nccn23)cc1F (centres unmarked) [Example 56, 3-amino-1-[4-[2-chloro-4-[[3-(3-fluoro-4-methoxyphenyl)imidazo[1,2-a]pyrazin-8-yl]amino]benzoyl]piperazin-1-yl]-2-hydroxypropan-1-one; hydrochloride] |  | IC90 [1]: 240 nM
COc1ccc(-c2cnc3c(Nc4ccc(C(=O)N5CCN(CCN6CCC6)CC5)c(Cl)c4)nccn23)cc1F [Example 57, [4-[2-(azetidin-1-yl)ethyl]piperazin-1-yl]-[2-chloro-4-[[3-(3-fluoro-4-methoxyphenyl)imidazo[1,2-a]pyrazin-8-yl]amino]phenyl]methanone] | 330 nM | 
COc1ccc(-c2cnc3c(Nc4ccc(C(=O)N5CCN(CCNC6CC6)CC5)c(Cl)c4)nccn23)cc1F [Example 58, [2-chloro-4-[[3-(3-fluoro-4-methoxyphenyl)imidazo[1,2-a]pyrazin-8-yl]amino]phenyl]-[4-[2-(cyclopropylamino)ethyl]piperazin-1-yl]methanone] | 330 nM | 
COc1ccc(-c2cnc3c(Nc4ccc(C(=O)N5CCC(C(=O)N6CCNC(C(=O)O)C6)CC5)c(Cl)c4)nccn23)cc1F (centres unmarked) [Example 59, 4-[1-[2-chloro-4-[[3-(3-fluoro-4-methoxyphenyl)imidazo[1,2-a]pyrazin-8-yl]amino]benzoyl]piperidine-4-carbonyl]piperazine-2-carboxylic acid] |  | IC90 (90% growth inhibitory concentration, Acinetobacter baumannii ATCC17978, Iso-Sensitest broth, OD 600 nm over 16 h): 1200 nM
COc1ccc(-c2cnc3c(Nc4ccc(C(=O)N5CCC(C(=O)NCC(O)CN)CC5)c(Cl)c4)nccn23)cc1F (centres unmarked) [Example 60, N-(3-amino-2-hydroxypropyl)-1-[2-chloro-4-[[3-(3-fluoro-4-methoxyphenyl)imidazo[1,2-a]pyrazin-8-yl]amino]benzoyl]piperidine-4-carboxamide;hydrochloride] | 140 nM | 
COc1ccc(-c2cnc3c(Nc4ccc(C(=O)N5CCOCC5)cc4)nccn23)cc1 [Example 61, [4-[[3-(4-methoxyphenyl)imidazo[1,2-a]pyrazin-8-yl]amino]phenyl]-morpholin-4-ylmethanone] | 580 nM | 
COc1ccc(-c2cnc3c(Nc4ccc(C(=O)N5CCC(O)CC5)cc4)nccn23)cc1Cl [Example 62, [4-[[3-(3-chloro-4-methoxyphenyl)imidazo[1,2-a]pyrazin-8-yl]amino]phenyl]-(4-hydroxypiperidin-1-yl)methanone] | 900 nM | 
COc1ccc(-c2cnc3c(Nc4ccc(C(=O)N5CCN(C6CNC6)CC5)c(Cl)c4)nccn23)cc1F [Example 73, [4-(azetidin-3-yl)piperazin-1-yl]-[2-chloro-4-[[3-(3-fluoro-4-methoxyphenyl)imidazo[1,2-a]pyrazin-8-yl]amino]phenyl]methanone; hydrochloride] |  | IC90 [1]: 530 nM

Now from value to compound, other results behind:

IC90 [2] | Compound | further results
1100 nM | COc1ccc(-c2cnc3c(Nc4ccc(C(=O)N5CCN(CCO)CC5)cc4)nccn23)cc1 [Example 63, [4-(2-hydroxyethyl)piperazin-1-yl]-[4-[[3-(4-methoxyphenyl)imidazo[1,2-a]pyrazin-8-yl]amino]phenyl]methanone] | 
1400 nM | COc1ccc(-c2cnc3c(Nc4ccc(C(=O)N5CCN(C)CC5)cc4)nccn23)cc1 [Example 64, [4-[[3-(4-methoxyphenyl)imidazo[1,2-a]pyrazin-8-yl]amino]phenyl]-(4-methylpiperazin-1-yl)methanone] | 
1500 nM | COc1ccc(-c2cnc3c(Nc4ccc(C(=O)N5CCCCC5)cc4)nccn23)cc1Cl [Example 65, [4-[[3-(3-chloro-4-methoxyphenyl)imidazo[1,2-a]pyrazin-8-yl]amino]phenyl]-piperidin-1-ylmethanone] | 
5900 nM | COc1ccc(-c2cnc3c(Nc4ccc(C(=O)N5CCC(N(C)C)C5)cc4)nccn23)cc1 (centres unmarked) [Example 66, [3-(dimethylamino)pyrrolidin-1-yl]-[4-[[3-(4-methoxyphenyl)imidazo[1,2-a]pyrazin-8-yl]amino]phenyl]methanone] | 
170 nM | O=C(c1ccc(Nc2nccn3c(-c4ccc(OC(F)F)cc4)cnc23)cc1Cl)N1CCC(N2CCNCC2)CC1 [Example 67, [2-chloro-4-[[3-[4-(difluoromethoxy)phenyl]imidazo [1,2-a]pyrazin-8-yl]amino]phenyl]-(4-piperazin-1-ylpiperidin-1-yl)methanone;hydrochloride] | 
110 nM | COc1ccc(-c2cnc3c(Nc4ccc(C(=O)N5CCN(CCN(C)C)CC5)c(Cl)c4)nccn23)c(Cl)c1F [Example 68, [2-chloro-4-[[3-(2-chloro-3-fluoro-4-methoxyphenyl)imidazo[1,2-a]pyrazin-8-yl]amino]phenyl]-[4-[2-(dimethylamino)ethyl]piperazin-1-yl]methanone] | 
140 nM | CN(C)CCN1CCN(C(=O)c2ccc(Nc3nccn4c(-c5ccc(OC(F)F)cc5)cnc34)cc2Cl)CC1 [Example 69, [2-chloro-4-[[3-[4-(difluoromethoxy)phenyl]imidazo[1,2-a]pyrazin-8-yl]amino]phenyl]-[4-[2-(dimethylamino)ethyl]piperazin-1-yl]methanone] | 
270 nM | COc1ccc(-c2cnc3c(Nc4ccc(C(=O)N5CCC(C(=O)N6CCNC(CO)C6)CC5)c(Cl)c4)nccn23)cc1F (centres unmarked) [Example 70, [2-chloro-4-[[3-(3-fluoro-4-methoxyphenyl)imidazo[1,2-a]pyrazin-8-yl]amino]phenyl]-[4-[3-(hydroxymethyl)piperazine-1-carbonyl]piperidin-1-yl]methanone;hydrochloride] | 
280 nM | COc1ccc(-c2cnc3c(Nc4ccc(C(=O)N5CCN(C6CCNC6)CC5)c(Cl)c4)nccn23)cc1F (centres unmarked) [Example 71, [2-chloro-4-[[3-(3-fluoro-4-methoxyphenyl)imidazo[1,2-a]pyrazin-8-yl]amino]phenyl]-(4-pyrrolidin-3-ylpiperazin-1-yl)methanone;hydrochloride] | 
510 nM | COc1ccc(-c2cnc3c(Nc4ccc(C(=O)N5CCN(Cc6cnc[nH]6)CC5)c(Cl)c4)nccn23)cc1F [Example 72, [2-chloro-4-[[3-(3-fluoro-4-methoxyphenyl)imidazo[1,2-a]pyrazin-8-yl]amino]phenyl]-[4-(1H-imidazol-5-ylmethyl)piperazin-1-yl]methanone] | 
2700 nM | COc1ccc(-c2cnc3c(Nc4ccc(C(=O)N5CCN(C)CC5)cc4)nccn23)cc1Cl [Example 74, [4-[[3-(3-chloro-4-methoxyphenyl)imidazo[1,2-a]pyrazin-8-yl]amino]phenyl]-(4-methylpiperazin-1-yl)methanone] | 
85 nM | C#CCOc1ccc(-c2cnc3c(Nc4ccc(C(=O)N5CCC(CN)CC5)c(Cl)c4)nccn23)c(F)c1F [Example 75, [4-(aminomethyl)piperidin-1-yl]-[2-chloro-4-[[3-(2,3-difluoro-4-prop-2-ynoxyphenyl)imidazo[1,2-a]pyrazin-8-yl]amino]phenyl]methanone] | 
240 nM | NCC1CCN(C(=O)c2ccc(Nc3nccn4c(-c5ccc(OCC#CCO)c(F)c5)cnc34)cc2Cl)CC1 [Example 76, [4-(aminomethyl)piperidin-1-yl]-[2-chloro-4-[[3-[3-fluoro-4-(4-hydroxybut-2-ynoxy)phenyl]imidazo[1,2-a]pyrazin-8-yl]amino]phenyl]methanone] | 
73 nM | CNCC(=O)N1CCN(C(=O)c2ccc(Nc3nccn4c(-c5ccc(OCC#N)c(F)c5F)cnc34)cc2Cl)CC1 [Example 77, 2-[4-[8-[3-chloro-4-[4-[2-(methylamino)acetyl]piperazine-1-carbonyl]anilino]imidazo[1,2-a]pyrazin-3-yl]-2,3-difluorophenoxy]acetonitrile] | 
280 nM | CN(C)CCN1CCN(C(=O)c2ccc(Nc3nccn4c(-c5ccc(OCC#N)c(F)c5F)cnc34)cc2Br)CC1 [Example 78, 2-[4-[8-[3-bromo-4-[4-[2-(dimethylamino)ethyl]piperazine-1-carbonyl]anilino]imidazo[1,2-a]pyrazin-3-yl]-2,3-difluorophenoxy]acetonitrile; formic acid] | 
